In article PMC2464581, “Pichia stipitis xylose reductase helps detoxifying lignocellulosic hydrolysate by reducing 5-hydroxymethyl-furfural (HMF)” (Biotechnology for Biofuels, 2008):

T1: Pichia stipitis xylose reductase (Ps-XR) (Scheffersomyces stipitis, UniProt P31867)
T1 construct: gene XYL1; XYL1 gene product overproduced in S. cerevisiae TMB3260 (PGK1p-XYL1); purified by Red-Sepharose and gel filtration; no tag mentioned
T1 sequence (P31867 1-318): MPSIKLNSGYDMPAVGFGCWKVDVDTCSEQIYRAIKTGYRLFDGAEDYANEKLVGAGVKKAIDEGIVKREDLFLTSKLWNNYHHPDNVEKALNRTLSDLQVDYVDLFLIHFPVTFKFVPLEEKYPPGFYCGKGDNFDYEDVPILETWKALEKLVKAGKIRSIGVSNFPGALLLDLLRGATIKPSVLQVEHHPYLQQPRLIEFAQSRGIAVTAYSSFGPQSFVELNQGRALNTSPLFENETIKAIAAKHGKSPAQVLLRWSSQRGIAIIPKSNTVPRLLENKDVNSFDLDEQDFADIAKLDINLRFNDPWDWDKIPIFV

B1: Pichia stipitis xylose reductase (Ps-XR) (Scheffersomyces stipitis CBS 6054) (protein)
chain: T1 sequence (P31867 1-318)
notes: XYL1 gene product overproduced in S. cerevisiae TMB3260 (PGK1p-XYL1); purified by Red-Sepharose and gel filtration; no tag mentioned

Assays:
[1] = target: T1, Pichia stipitis xylose reductase (Ps-XR); assay: NADPH oxidation at […] nm, non-linear regression, substrate-inhibition model with Hill coefficient; format: biochemical; conditions: NADPH as cofactor, Hill coefficient n = 3.51, 100 mM phosphate pH 7.0, 30 °C, unit of Ki not printed (Km in mM)
purified protein = substrate: O=Cc1ccc(CO)o1; assay: purified protein; format: biochemical, Scheffersomyces stipitis; conditions: NADPH as cofactor, substrate-inhibition model, 100 mM phosphate pH 7.0, 30 °C

Molecule	Ki [1]	Km (purified protein) [mM]
O=Cc1ccc(CO)o1 [HMF]	95.0	
B1		40
